From patent publication US9409884B2 (Rigel Pharmaceuticals, Inc., priority 2012, dated 2016)

The compounds below were run against AMPK (assay: AMPK activation, enzyme-linked immunosorbent assay). Settings: Table 8, compounds of Table 1.
Format: biochemical
Procedure, shortened: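 AMPK activation by test compounds was measured by enzyme-linked immunosorbent assay.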

SMILES	EC50 [nM]
CN(C(=O)c1cc2cc(OC3CCN(c4ccc(C(F)(F)F)cc4)CC3)ccc2o1)C1CCN(Cc2ccc(C#N)cc2)CC1 [Compound 1-107, N-(1-(4-cyanobenzyl)piperidin-4-yl)-N-methyl-5-(1-(4-(trifluoromethyl)phenyl)piperidin-4-yloxy)benzofuran-2-carboxamide]	< 100
N#Cc1ccc(CN2CCC(NC(=O)c3ccnc(OC4CCN(c5ccc(C(F)(F)F)cc5)CC4)c3)CC2)cc1 [Compound 1-21, N-(1-(4-cyanobenzyl)piperidin-4-yl)-2-(1-(4-(trifluoromethyl)phenyl)piperidin-4-yloxy) isonicotinamide]	100 to 500
O=C(N[C@H]1CCN(Cc2ccc(F)cc2)C1)c1ccc(OC2CCN(c3ccc(C(F)(F)F)cc3)CC2)cn1 [Compound 1-32, (S)-N-(1-(4-fluorobenzyl)pyrrolidin-3-yl)-5-(1-(4-(trifluoromethyl)phenyl)piperidin-4-yloxy) picolinamide]	100 to 500
CC(C)(C)OC(=O)N1CC[C@H](NC(=O)c2ccc(OC3CCN(c4ccc(C(F)(F)F)cc4)CC3)cn2)C1 [Compound 1-26, (S)-tert-butyl 3-(5-(1-(4-(trifluoromethyl)phenyl)piperidin-4-yloxy)picolinamido) pyrrolidine-1-carboxylate]	100 to 500

Other lines, results leading:

EC50 [nM]	SMILES
500 to 1000	O=C(NC1CCN(Cc2ccccc2)CC1)c1cc2cc(OC3CCN(Cc4cccc(C(F)(F)F)c4)CC3)ccc2o1 [Compound 1-73, N-(1-benzylpiperidin-4-yl)-5-(1-(3-(trifluoromethyl)benzyl)piperidin-4-yloxy)benzofuran-2-carboxamide]
< 100	O=C(NC1CCN(Cc2ccc(C(F)(F)F)cc2)CC1)c1cc2cc(OC3CCN(c4ccc(C(F)(F)F)cc4)CC3)ccc2o1 [Compound 1-100, N-(1-(4-(trifluoromethyl)benzyl)piperidin-4-yl)-5-(1-(4-(trifluoromethyl)phenyl)piperidin-4-yloxy)benzofuran-2-carboxamide]

Same assay, conditions: Table 9, compounds of Table 2

EC50 [nM]	SMILES
> 100000	O=C(NC1CCN(Cc2cccnc2)CC1)c1ccc2[nH]c3c(c2c1)CN(c1ccc(F)cc1)CC3 [Compound 2-36, 2-(4-fluorophenyl)-N-(1-(pyridin-3-ylmethyl)piperidin-4-yl)-2,3,4,5-tetrahydro-1H-pyrido[4,3-b]indole-8-carboxamide]

Same assay, conditions: Table 10, compounds of Table 3

EC50 [nM]	SMILES
< 100	CC(C)(C)OC(=O)N1CCC(NC(=O)c2nc3ccc(OC4CCN(c5ccc(C(F)(F)F)cc5)CC4)cc3o2)CC1 [Compound 3-1, tert-butyl 4-(6-(1-(4-(trifluoromethyl)phenyl)piperidin-4-yloxy)benzo[d]oxazole-2-carboxamido)piperidine-1-carboxylate]
< 100	N#Cc1ccc(CN2CCC(NC(=O)c3ccc(C(=O)N4CCN(c5ccc(C(F)(F)F)cn5)CC4)cc3)CC2)cc1 [Compound 3-30, N-(1-(4-cyanobenzyl)piperidin-4-yl)-4-(4-(5-(trifluoromethyl)pyridin-2-yl)piperazine-1-carbonyl)benzamide]
< 100	N#Cc1ccc(CN2CCC(NC(=O)c3cnc(OC4CCN(c5ccc(C(F)(F)F)cc5)CC4)s3)CC2)cc1 [Compound 3-23, N-(1-(4-cyanobenzyl)piperidin-4-yl)-2-(1-(4-(trifluoromethyl)phenyl)piperidin-4-yloxy)thiazole-5-carboxamide]

Same assay, conditions: Table 12, compounds of Table 5

EC50 [nM]	SMILES
< 1000	COc1ccc(CN2CCC(NC(=O)c3cccc(OC4CCN(Cc5ccc(N6CCOCC6)cc5)CC4)c3)CC2)cc1 [Compound 5-109, N-(1-(4-methoxybenzyl)piperidin-4-yl)-3-(1-(4-morpholinobenzyl)piperidin-4-yloxy)benzamide]
< 1000	N#Cc1ccc(N2CCC(Oc3ccc(C(=O)NC4CCN(Cc5ccncc5)CC4)cc3F)CC2)cc1 [Compound 5-44, 4-(1-(4-cyanophenyl)piperidin-4-yloxy)-3-fluoro-N-(1-(pyridin-4-ylmethyl)piperidin-4-yl)benzamide]
1000 to 10000	CC(c1ccccc1)N1CCC(Oc2ccc(C(=O)NC3CCN(Cc4ccccc4)CC3)cc2F)CC1 (stereo not shown) [Compound 5-21, N-(1-benzylpiperidin-4-yl)-3-fluoro-4-(1-(1-phenylethyl)piperidin-4-yloxy)benzamide]
10000 to 20000	CC(C)(C)OC(=O)NCCCNC(=O)c1ccc(OC2CCN(Cc3ccccc3)CC2)c(Cl)c1 [Compound 5-102, tert-butyl 3-(4-(1-benzylpiperidin-4-yloxy)-3-chlorobenzamido) propylcarbamate]
< 1000	Cc1ccc(CN2CCC(Oc3ccc(C(=O)NC4CCN(Cc5ccc(Cl)cc5)CC4)cc3F)CC2)cc1 [Compound 5-73, N-(1-(4-chlorobenzyl)piperidin-4-yl)-3-fluoro-4-(1-(4-methylbenzyl)piperidin-4-yloxy)benzamide]
< 1000	CC(C)(C)c1ccc(CN2CCC(Oc3ccc(C(=O)NC4CCN(c5ccccc5)CC4)cc3F)CC2)cc1 [Compound 5-36, 4-(1-(4-tert-butylbenzyl)piperidin-4-yloxy)-3-fluoro-N-(1-phenylpiperidin-4-yl)benzamide]
> 100000	O=C(NC1CCN(Cc2ccccc2)CC1)c1ccc(OC2CCNCC2)c(Cl)c1 [Compound 5-93, N-(1-benzylpiperidin-4-yl)-3-chloro-4-(piperidin-4-yloxy)benzamide]
< 1000	O=C(NC1CCN(Cc2ccccc2)CC1)c1ccc(OC2CCN(Cc3ccc(OC(F)(F)F)cc3)CC2)cc1 [Compound 5-63, N-(1-benzylpiperidin-4-yl)-4-(1-(4-(trifluoromethoxy)benzyl)piperidin-4-yloxy)benzamide]

Same assay, conditions: Table 13, compounds of Table 6

EC50 [nM]	SMILES
100 to 1000	CS(=O)(=O)c1ccc(CN2CCN(C(=O)c3ccc4cc(C(=O)NC5CCN(Cc6ccc(OC(F)(F)F)cc6)CC5)oc4c3)CC2)cc1 [Compound 6-4, 6-(4-(4-(methylsulfonyl)benzyl)piperazine-1-carbonyl)-N-(1-(4-(trifluoromethoxy)benzyl)piperidin-4-yl)benzofuran-2-carboxamide]
< 100	COc1ccc(N2CCN(C(=O)c3ccc4oc(C(=O)NC5CCN(Cc6ccc(C#N)cc6)CC5)cc4c3)CC2)cc1 [Compound 6-106, N-(1-(4-cyanobenzyl)piperidin-4-yl)-5-(4-(4-methoxyphenyl)piperazine-1-carbonyl)benzofuran-2-carboxamide]
< 100	N#Cc1ccc(CN2CCC(NC(=O)c3cc4cc(C(=O)N5CCN(Cc6ccc(-n7cccn7)cc6)CC5)ccc4o3)CC2)cc1 [Compound 6-79, 5-(4-(4-(1H-pyrazol-1-yl)benzyl)piperazine-1-carbonyl)-N-(1-(4-cyanobenzyl)piperidin-4-yl)benzofuran-2-carboxamide]
< 100	N#Cc1ccc(CN2CCC(NC(=O)c3cc4cc(C(=O)N5CCN(Cc6ccc(N7CCCC7)cc6)CC5)ccc4o3)CC2)cc1 [Compound 6-80, N-(1-(4-cyanobenzyl)piperidin-4-yl)-5-(4-(4-(pyrrolidin-1-yl)benzyl)piperazine-1-carbonyl)benzofuran-2-carboxamide]
< 100	O=C(NC1CCN(Cc2ccc(OC(F)(F)F)cc2)CC1)c1cc2cc(C(=O)N3CCC(Oc4ccc(S(=O)(=O)C(F)(F)F)cc4)CC3)ccc2o1 [Compound 6-136, N-(1-(4-(trifluoromethoxy)benzyl)piperidin-4-yl)-5-(4-(4-(trifluoromethylsulfonyl)phenoxy)piperidine-1-carbonyl)benzofuran-2-carboxamide]
< 100	N#Cc1ccc(CN2CCC(NC(=O)c3cc4cc(C(=O)N5CCN(Cc6cnn(-c7ccc(C#N)cc7)c6)CC5)ccc4o3)CC2)cc1 [Compound 6-77, N-(1-(4-cyanobenzyl)piperidin-4-yl)-5-(4-((1-(4-cyanophenyl)-1H-pyrazol-4-yl)methyl)piperazine-1-carbonyl)benzofuran-2-carboxamide]
< 100	CS(=O)(=O)c1ccc(CN2CCN(c3ccc4oc(C(=O)NC5CCN(Cc6ccc(C#N)cc6)CC5)cc4c3)CC2)cc1 [Compound 6-10, N-(1-(4-cyanobenzyl)piperidin-4-yl)-5-(4-(4-(methylsulfonyl)benzyl)piperazin-1-yl)benzofuran-2-carboxamide]
< 100	CS(=O)(=O)c1cccc(CN2CCN(C(=O)c3ccc4oc(C(=O)NC5CCN(Cc6ccc(C(F)(F)F)cc6)CC5)cc4c3)CC2)c1 [Compound 6-149, 5-(4-(3-(methylsulfonyl)benzyl)piperazine-1-carbonyl)-N-(1-(4-(trifluoromethyl)benzyl)piperidin-4-yl)benzofuran-2-carboxamide]
1000 to 10000	N#Cc1ccc(CN2CCC(NC(=O)c3cc4cc(C(=O)NC5CCN(Cc6ccn(-c7ccc(C#N)cc7)n6)CC5)ccc4o3)CC2)cc1 [Compound 6-91, N2-(1-(4-cyanobenzyl)piperidin-4-yl)-N5-(1-((1-(4-cyanophenyl)-1H-pyrazol-3-yl)methyl)piperidin-4-yl)benzofuran-2,5-dicarboxamide]
< 100	CS(=O)(=O)c1ccc(CN2CCN(C(=O)c3ccc4oc(C(=O)NC5CCN(Cc6ccc(OC(F)(F)C(F)F)cc6)CC5)cc4c3)CC2)cc1 [Compound 6-156, 5-(4-(4-(methylsulfonyl)benzyl)piperazine-1-carbonyl)-N-(1-(4-(1,1,2,2-tetrafluoroethoxy)benzyl)piperidin-4-yl)benzofuran-2-carboxamide]

Same assay, conditions: Table 14, compounds of Table 7

EC50 [nM]	SMILES
< 1000	CS(=O)(=O)c1ccc(OC2CCN(C(=O)c3ccc(C(=O)Nc4ccc(Oc5ccc(S(F)(F)(F)(F)F)cc5)nc4)nc3)CC2)cc1 [Compound 7-2, 5-(4-(4-(methylsulfonyl)phenoxy)piperidine-1-carbonyl)-N-(6-(4-(pentafluorosulfanyl)phenoxy)pyridin-3-yl)picolinamide]
1000 to 10000	COc1ccc(C(=O)C2CCCN(C(=O)c3ccc(C(=O)Nc4ccc(Oc5ccc(F)cc5)nc4)cn3)C2)cc1 (stereo not shown) [Compound 7-10, N-(6-(4-fluorophenoxy)pyridin-3-yl)-6-(3-(4-methoxybenzoyl)piperidine-1-carbonyl)nicotinamide]
1000 to 10000	CS(=O)(=O)c1ccc(OC2CCN(C(=O)c3ccc(C(=O)Nc4ccc(Oc5ccc(S(F)(F)(F)(F)F)cc5)nc4)cn3)CC2)cc1 [Compound 7-1, 6-(4-(4-(methylsulfonyl)phenoxy)piperidine-1-carbonyl)-N-(6-(4-(pentafluorosulfanyl)phenoxy)pyridin-3-yl)nicotinamide]
